Entries after “also recorded” stand apart in the source; their conditions may differ.
Key:
Pseudomonas aeruginosa = assay: Disk diffusion test on Pseudomonas aeruginosa; type: cell-based; details: in combination with aztreonam
From the text: (§1) Applicants undertook two rounds of studies. […] When agar plating was required, both rounds of Applicants' studies were undertaken using similar disk diffusion methods on bacteria grown on agar substrates in Petri dishes. These methods conform to those prescribed by the Clinical & Laboratory Standards Institute (https://clsi.org). […]

Escherichia coli = assay: Disk diffusion test on Escherichia coli; type: cell-based
From the text: as §1

Acinetobacter baumannii = assay: Disk diffusion test on Acinetobacter baumannii; type: cell-based
From the text: as §1

[1] = tested on: methicillin-resistant coagulase-negative Staphylococcus sps. (MRCoNS); assay: Disk diffusion test on MRCoNS; type: cell-based
From the text: (§2) Applicants undertook two rounds of studies. The results of the first round are illustrated in FIGS. 1A-9B and discussed in the related text. The results of the second round of studies are illustrated in FIGS. 10-23 and discussed in the related text. When agar plating was required, both rounds of Applicants' studies were undertaken using similar disk diffusion methods on bacteria grown on agar substrates in Petri dishes. These methods conform to those prescribed by the Clinical & Laboratory Standards Institute (https://clsi.org).
(§3) Disk Diffusion tests with beta-lactam antibiotics with and without the beta-lactamase inhibitor of FIG. 1A. Closely spaced disks disclose possible synergistic or inhibitory effects between the antibiotics and the compound of FIG. 1A (labeled in FIGS. 4A-9B as Compound C). The distances between disks show the effectiveness of the possible synergy. […] Each disk contains either the compound of FIG. 1A or an antibiotic (one of FIGS. 3A-3D), or the compound of […] and an antibiotic (one of FIGS. 3A-3D). When a disk with the compound of FIG. 1A is in proximity to a disk with an antibiotic both agents diffuse into the bacterial growth medium, allowing us to observe the area where both agents are present at the same time. These disk diffusion tests were evaluated with the following:
(§4) As noted above, Applicants' studies were undertaken using similar disk diffusion methods on bacteria grown on agar substrates in Petri dishes. These methods conform to those prescribed by the Clinical & Laboratory Standards Institute (https://clsi.org).

Citrobacter freundii = assay: Disk diffusion test on Citrobacter freundii; type: cell-based
From the text: as §1

[2] = tested on: MSSA (methicillin-sensitive Staphylococcus aureus); assay: Disk diffusion test on Staphylococcus aureus (MSSA); type: cell-based
From the text: as §1

[3] = tested on: complicated urinary tract infection, including acute pyelonephritis; assay: Intravenous cefepime plus 5-Boronothiophene-2-carboxylic acid in patients with complicated urinary tract infection; type: in vivo, adult patients; details: cefepime 2.0 g + 5-Boronothiophene-2-carboxylic acid 0.5 g, intravenously over two hours every 8 hours, 7 days
Description: According to the disclosed invention, requisite amounts of both cefepime and 5-Boronothiophene-2-carboxylic acid are dissolved. Particularly, 2.0 g of cefepime are dissolved in sterile normal saline (0.9% sodium chloride) solution and 0.5 g of 5-Boronothiophene-2-carboxylic acid are dissolved in DMSO. Dissolution may be accelerated by use of an alcohol such as ethyl alcohol. Thereafter, a 2.5 g dose of a combination of cefepime (2.0 g) and 5-Boronothiophene-2-carboxylic acid (0.5 g) together with sterile normal saline (0.9% sodium chloride) as a diluent is administered to randomly assigned adult patients challenged with complicated urinary tract infection, including acute pyelonephritis, over a two-hour period with the dose being administered intravenously every 8 hours. A 1.0 g dose of a placebo is administered over 30-minute periods, every 8 hours also intravenously. The administration may be carried out over a period of 7 days.

Klebsiella pneumoniae = assay: Disk diffusion test on Klebsiella pneumoniae; type: cell-based
From the text: as §2, §3, §4

[4] = in combination with ceftazidime
[5] = in combination with ceftriaxone

**Q.** What does the source list for `O=C(O)c1ccc(B(O)O)s1` [Compound C, 2-carboxythiophene-5-boronic acid]?
**A.** effectiveness of the combination with antibiotic (Pseudomonas aeruginosa): enhanced effectiveness; effectiveness of the combination with antibiotic (Escherichia coli; in combination with amoxycillin): enhanced effectiveness; effectiveness of the combination with antibiotic (Escherichia coli; [4]): enhanced effectiveness; effectiveness of the combination with antibiotic (Escherichia coli; [5]): enhanced effectiveness; effectiveness of the combination with antibiotic (Escherichia coli; in combination with meropenem): enhanced effectiveness; effectiveness of the combination with antibiotic (Acinetobacter baumannii; [4]): enhanced effectiveness; effectiveness of the combination with antibiotic (Acinetobacter baumannii; in combination with meropenem): enhanced effectiveness; effect on cefoxitin activity ([1]; cefoxitin 30 μg + Compound C 15 μg): does not enhance cefoxitin activity; effect on cefoxitin activity ([1]; cefoxitin 30 μg + Compound C 150 μg): inhibits cefoxitin antibiotic activity; effectiveness of the combination with antibiotic ([1]; in combination with ampicillin): enhanced effectiveness; effectiveness of the combination with antibiotic ([1]; in combination with penicillin G (second round)): enhanced effectiveness; activation of the antibiotic action of penicillin G ([1]; penicillin G 10 μg + Compound C 15 μg): strongly enables; also recorded: activates the antibiotic action of penicillin G; activation of the antibiotic action of penicillin G ([1]; penicillin G 10 μg + Compound C 150 μg): further activate penicillin G; antibacterial activity of the agent by itself ([1]; single agent disk, penicillin G 10 μg, cefoxitin 30 μg, Compound C 15 μg): no antibacterial activity; effectiveness of the combination with antibiotic (Citrobacter freundii; [4]): enhanced effectiveness; effectiveness of the combination with antibiotic (Citrobacter freundii; [5]): enhanced effectiveness; effectiveness of the combination with antibiotic (Citrobacter freundii; in combination with meropenem): enhanced effectiveness; effectiveness of the combination with antibiotic ([2]; in combination with ampicillin): enhanced effectiveness; effectiveness of the combination with antibiotic ([2]; in combination with penicillin G): enhanced effectiveness; microbiologic and clinical success [3]: both microbiologic and clinical success; enhancement of the action of ceftazidime (Klebsiella pneumoniae; ceftazidime 30 μg + Compound C 15 μg): very strongly enhances; also recorded: strongly enhances; effectiveness of the combination with antibiotic (Klebsiella pneumoniae; in combination with ceftazidime (second round)): enhanced effectiveness; effectiveness of the combination with antibiotic (Klebsiella pneumoniae; [5]): enhanced effectiveness; effectiveness of the combination with antibiotic (Klebsiella pneumoniae; in combination with meropenem (second round)): enhanced effectiveness; effect on the activity of meropenem (Klebsiella pneumoniae; meropenem 10 μg + Compound C 15 μg): essentially no effect; effect on the activity of meropenem (Klebsiella pneumoniae; meropenem 10 μg + Compound C 150 μg): only weakly enhances; antibacterial activity of the agent by itself (Klebsiella pneumoniae; single agent disk, ceftazidime 30 μg, meropenem 10 μg, Compound C 15 μg): no activity on its own

From patent US20250332181A1, “ANTIBIOTIC METHODS AND COMPOSITIONS” (AI BIO DISCOVERY LLC, priority 2024, published 2025)
